Experimental data reported in patent publication US11613538B2, “Method of inhibiting or reducing a viral infection” (PTC Therapeutics, Inc., priority 2009, dated 2023).

Tested on: hypoxia-induced VEGF production in HeLa cells
Experiment: cells
Type: cell-based, human
Details: Homo sapiens, HeLa

Structure (SMILES): COC(=O)[C@H]1CCCN1CCCOc1ccc(C2c3[nH]c4ccc(Cl)cc4c3CCN2C(=O)Oc2ccc(Cl)cc2)cc1 (stereo partly shown) [Compound 1362]
- EC50: < 8 nM

Structure (SMILES): CCOC(=O)N1CCc2c([nH]c3ccc(Cl)cc23)C1c1cccc(OCCCN2CCN(C(C)=O)CC2)c1 (stereo not shown) [Compound 1363]
- EC50: 40 to 200 nM

Structure (SMILES): CC(=O)N1CCN(CCCOc2cccc(C3c4[nH]c5ccc(Cl)cc5c4CCN3C(=O)Oc3ccc(F)cc3)c2)CC1 (stereo not shown) [Compound 1364]
- EC50: 40 to 200 nM

Structure (SMILES): C=CCOc1ccc([C@H]2c3[nH]c4ccc(Cl)cc4c3CCN2C(=O)OCC2CC2)cc1 [Compound 1365]
- EC50: < 8 nM

Structure (SMILES): C=CCOc1ccc([C@H]2c3[nH]c4ccc(Cl)cc4c3CCN2C(=O)OCC2CCC2)cc1 [Compound 1366]
- EC50: < 8 nM

Structure (SMILES): O=C(OCC1CCC1)N1CCc2c([nH]c3ccc(Cl)cc23)[C@@H]1c1ccc(OCCCO)cc1 [Compound 1368]
- EC50: < 8 nM

Structure (SMILES): O=C(OCC1CC1)N1CCc2c([nH]c3ccc(Cl)cc23)[C@@H]1c1ccc(O)cc1 [Compound 1369]
- EC50: 8 to 40 nM

Structure (SMILES): O=C(OCC1CCC1)N1CCc2c([nH]c3ccc(Cl)cc23)[C@@H]1c1ccc(O)cc1 [Compound 1370]
- EC50: 8 to 40 nM

Structure (SMILES): COc1ccc([C@H]2c3[nH]c4ccc(Cl)cc4c3CCN2C(=O)OCC2CC2)cc1 [Compound 1371]
- EC50: 8 to 40 nM

Structure (SMILES): COc1ccc([C@H]2c3[nH]c4ccc(Cl)cc4c3CCN2C(=O)OCC2CCC2)cc1 [Compound 1372]
- EC50: < 8 nM

Structure (SMILES): O=C(OCC1CC1)N1CCc2c([nH]c3ccc(Cl)cc23)[C@@H]1c1ccc(OCC[C@H](O)CO)cc1 [Compound 1373]
- EC50: < 8 nM

Structure (SMILES): O=C(OCC1CCC1)N1CCc2c([nH]c3ccc(Cl)cc23)[C@@H]1c1ccc(OCC[C@H](O)CO)cc1 [Compound 1374]
- EC50: < 8 nM

Structure (SMILES): CC(CO)(CO)COc1ccc([C@H]2c3[nH]c4ccc(Cl)cc4c3CCN2C(=O)OCC2CC2)cc1 [Compound 1375]
- EC50: < 8 nM

Structure (SMILES): CC(CO)(CO)COc1ccc([C@H]2c3[nH]c4ccc(Cl)cc4c3CCN2C(=O)OCC2CCC2)cc1 [Compound 1376]
- EC50: < 8 nM

Structure (SMILES): O=C(OCC1CC1)N1CCc2c([nH]c3ccc(Cl)cc23)[C@@H]1c1ccc(OC[C@H](O)CO)cc1 [Compound 1377]
- EC50: < 8 nM

Structure (SMILES): CC1(COC(=O)N2CCc3c([nH]c4ccc(Cl)cc34)[C@@H]2c2ccc(OC[C@H](O)CO)cc2)CC1 [Compound 1378]
- EC50: < 8 nM

Structure (SMILES): O=C(OCC1CCC1)N1CCc2c([nH]c3ccc(Cl)cc23)[C@@H]1c1ccc(OC[C@H](O)CO)cc1 [Compound 1379]
- EC50: < 8 nM

Structure (SMILES): O=C(OCC1CC1)N1CCc2c([nH]c3ccc(Cl)cc23)[C@@H]1c1ccc(OC[C@@H](O)CO)cc1 [Compound 1380]
- EC50: < 8 nM

Structure (SMILES): CC1(COC(=O)N2CCc3c([nH]c4ccc(Cl)cc34)[C@@H]2c2ccc(OC[C@@H](O)CO)cc2)CC1 [Compound 1381]
- EC50: < 8 nM

Structure (SMILES): O=C(OCC1CCC1)N1CCc2c([nH]c3ccc(Cl)cc23)[C@@H]1c1ccc(OC[C@@H](O)CO)cc1 [Compound 1382]
- EC50: < 8 nM

Structure (SMILES): CCC(CO)(CO)COc1ccc([C@H]2c3[nH]c4ccc(Cl)cc4c3CCN2C(=O)OCC2CC2)cc1 [Compound 1383]
- EC50: < 8 nM

Structure (SMILES): CCC(CO)(CO)COc1ccc([C@H]2c3[nH]c4ccc(Cl)cc4c3CCN2C(=O)OCC2(C)CC2)cc1 [Compound 1384]
- EC50: < 8 nM

Structure (SMILES): CCC(CO)(CO)COc1ccc([C@H]2c3[nH]c4ccc(Cl)cc4c3CCN2C(=O)OCC2CCC2)cc1 [Compound 1385]
- EC50: < 8 nM

Structure (SMILES): O=C(OCC1CCC1)N1CCc2c([nH]c3ccc(Cl)cc23)[C@@H]1c1ccc(OCC2(CO)COCOC2)cc1 [Compound 1386]
- EC50: 8 to 40 nM

Structure (SMILES): CCOC(=O)CNC(=O)c1cccc(C2c3[nH]c4ccc(Cl)cc4c3CCN2C(=O)OCC)c1 (stereo not shown) [Compound 1387]
- EC50: 40 to 200 nM

Structure (SMILES): CCOC(=O)N1CCc2c([nH]c3ccc(Cl)cc23)C1c1cccc(C(=O)NCC(=O)O)c1 (stereo not shown) [Compound 1388]
- EC50: > 1000 nM

Structure (SMILES): CCOC(=O)N1CCc2c([nH]c3ccc(Cl)cc23)C1c1cccc(C(=O)N(C)CC(=O)O)c1 (stereo not shown) [Compound 1389]
- EC50: > 1000 nM

Structure (SMILES): CCOC(=O)N1CCc2c([nH]c3ccc(Br)cc23)C1c1ccc(C(=O)N(C)CC(=O)O)cc1 (stereo not shown) [Compound 1390]
- EC50: > 1000 nM

Structure (SMILES): CCOC(=O)N1CCc2c([nH]c3ccc(Cl)cc23)C1c1ccc(OCCCOCCOC)cc1 (stereo not shown) [Compound 1396]
- EC50: > 1000 nM

Structure (SMILES): [H]/N=C(\N)NCCOc1ccc(C2c3[nH]c4ccc(Cl)cc4c3CCN2C(=O)OCC)cc1 (stereo not shown) [Compound 1397]
- EC50: 40 to 200 nM

Structure (SMILES): CCOC(=O)N1CCc2c([nH]c3ccc(Cl)cc23)C1c1ccc(OCCNc2nccnn2)cc1 (stereo not shown) [Compound 1398]
- EC50: 40 to 200 nM

Structure (SMILES): CCOC(=O)N1CCc2c([nH]c3ccc(Cl)cc23)C1c1ccc(OCCn2nc(N)cc2C)cc1 (stereo not shown) [Compound 1399]
- EC50: < 8 nM

Structure (SMILES): [H]/N=c1\scnn1CCOc1ccc(C2c3[nH]c4ccc(Cl)cc4c3CCN2C(=O)OCC)cc1 (stereo not shown) [Compound 1400]
- EC50: < 8 nM

Structure (SMILES): CCOC(=O)N1CCc2c([nH]c3ccc(Cl)cc23)C1c1ccc(OCCn2cc(C#N)c(N)n2)cc1 (stereo not shown) [Compound 1401]
- EC50: 8 to 40 nM

Structure (SMILES): [H]/N=C(\N)NCCOc1ccc(C2c3[nH]c4ccc(Cl)cc4c3CCN2C(=O)OCC#CC)cc1 (stereo not shown) [Compound 1402]
- EC50: 200 to 1000 nM

Structure (SMILES): [H]/N=c1\scnn1CCOc1ccc(C2c3[nH]c4ccc(Cl)cc4c3CCN2C(=O)OCC#CC)cc1 (stereo not shown) [Compound 1403]
- EC50: < 8 nM

Structure (SMILES): CC#CCOC(=O)N1CCc2c([nH]c3ccc(Cl)cc23)C1c1ccc(OCCn2cc(C(N)=O)c(N)n2)cc1 (stereo not shown) [Compound 1404]
- EC50: 40 to 200 nM

Structure (SMILES): Cc1cc(NCCOc2ccc(C3c4[nH]c5ccc(Cl)cc5c4CCN3C(=O)OCC(C)C)cc2)on1 (stereo not shown) [Compound 1405]
- EC50: 40 to 200 nM

Structure (SMILES): CC(C)COC(=O)N1CCc2c([nH]c3ccc(Cl)cc23)C1c1ccc(OCCOc2cc(N)n[nH]2)cc1 (stereo not shown) [Compound 1406]
- EC50: 40 to 200 nM

Structure (SMILES): [H]/N=c1\scnn1CCOc1ccc(C2c3[nH]c4ccc(Cl)cc4c3CCN2C(=O)OCC(C)C)cc1 (stereo not shown) [Compound 1407]
- EC50: < 8 nM

Structure (SMILES): CC(C)COC(=O)N1CCc2c([nH]c3ccc(Cl)cc23)C1c1ccc(OCCn2cc(C#N)c(N)n2)cc1 (stereo not shown) [Compound 1408]
- EC50: < 8 nM

Structure (SMILES): CC(C)COC(=O)N1CCc2c([nH]c3ccc(Cl)cc23)C1c1ccc(OCCNc2ncc[nH]2)cc1 (stereo not shown) [Compound 1409]
- EC50: 200 to 1000 nM

Structure (SMILES): [H]/N=C(\N)NCCOc1ccc(C2c3[nH]c4ccc(Cl)cc4c3CCN2C(=O)OCCOC)cc1 (stereo not shown) [Compound 1410]
- EC50: > 1000 nM

Structure (SMILES): COCCOC(=O)N1CCc2c([nH]c3ccc(Cl)cc23)C1c1ccc(OCCNc2cc(C)no2)cc1 (stereo not shown) [Compound 1411]
- EC50: 200 to 1000 nM

Structure (SMILES): [H]/N=c1\scnn1CCOc1ccc(C2c3[nH]c4ccc(Cl)cc4c3CCN2C(=O)OCCOC)cc1 (stereo not shown) [Compound 1412]
- EC50: 8 to 40 nM

Structure (SMILES): CCOC(=O)N1CCc2c([nH]c3cc(C(F)(F)F)ccc23)C1c1ccc(OC)cc1 (stereo not shown) [Compound 1423]
- EC50: > 1000 nM

Structure (SMILES): COc1ccc(C2c3[nH]c4cc(C(F)(F)F)ccc4c3CCN2C(=O)Oc2ccc(F)cc2)cc1 (stereo not shown) [Compound 1424]
- EC50: > 1000 nM

Structure (SMILES): COc1ccc(OC(=O)N2CCc3c([nH]c4cc(C(F)(F)F)ccc34)C2c2ccc(OC)cc2)cc1 (stereo not shown) [Compound 1425]
- EC50: > 1000 nM

Structure (SMILES): COc1ccc(C2c3[nH]c4c(C)cccc4c3CCN2C(=O)Oc2ccc(C)cc2)cc1 (stereo not shown) [Compound 1426]
- EC50: > 1000 nM

Structure (SMILES): COc1ccc(OC(=O)N2CCc3c([nH]c4c(C)cccc34)C2c2ccc(OC)cc2)cc1 (stereo not shown) [Compound 1427]
- EC50: > 1000 nM

Structure (SMILES): CCOC(=O)N1CCc2c([nH]c3c(C)cccc23)C1c1ccc(OC)cc1 (stereo not shown) [Compound 1428]
- EC50: > 1000 nM

Structure (SMILES): COc1ccc(C2c3[nH]c4c(C)cccc4c3CCN2C(=O)Oc2ccc(Cl)cc2)cc1 (stereo not shown) [Compound 1429]
- EC50: > 1000 nM
